In US20220175720A1, “COMBINED P[…] ANTHOCYANIN COMPOSITION AND AN ANTIVIRAL AGENT” (priority 2019, published 2022):

Tests used:
[1] = system: GFP-encoding wildtype HSV-1 virus; test: HSV-1 infection assay, GFP-expressing infected cells counted directly; type: cell-based, herpes simplex virus 1; conditions: single anthocyanins, BHK cells
Experimental: BHK cells were incubated with decreasing concentration of the solubilized test compounds for approx. 1 h. All concentrations were analyzed by six independent replicates on a black 96 well plate (PerkinElmer). Cells were infected with GFP-encoding wildtype HSV-1 virus and incubated for two days. Two days after infection, HSV-1-infected cells and GFP expressing cells were directly counted using the PerkinElmer Ensight system with optical cell culture plates. The instrument was controlled by manual counting.
The cells were subsequently infected with GFP-encoding HSV at a multiplicity of infection of 2.5, and infected GFP-expressing cells were counted one day after infection using the PerkinElmer Ensight system. […] Thus, the sugar is not required as potential co-factor for drug uptake.

HSV-1 = HSV-1 complete replication cycle assay, supernatants used to infect fresh BHK cells; type: cell-based, herpes simplex virus 1
Experimental: To not only analyze the virus entry and early phase of virus replication of infection but also later phases of viral replication, the test assay was adjusted accordingly. BHK cells were incubated with test compounds and subsequently infected with HSV-1. Two days after infection supernatants were collected, centrifuged to remove detached cells and used to infect BHK cells. After two additional days infected cells were quantified using the Ensight system.
Two days after infection supernatants were collected, centrifuged to remove detached cells and used to infect BHK cells. After two additional days infected cells were quantified using the PerkinElmer Ensight system. The mean of infected cells from six independent wells was calculated. Error bars show the standard deviation.
(§1) However, Aciclovir, the standard therapy for HSV-1, targets viral DNA replication before the late phase of virus replication cycle. […] Two days after infection supernatants were collected, centrifuged to remove detached cells and used to infect BHK cells. After two addition days infected cells were quantified.
as §1

Structure (SMILES) | inhibition of HSV-1 (viral infectivity) [1] | reduction of infected cells (HSV-1; 0.5 μg/ml Aciclovir alone) | reduction of viral infectivity (HSV-1; 2 μg/ml Aciclovir alone)
OC[C@H]1O[C@@H](Oc2cc3c(O)cc(O)cc3[o+]c2-c2ccc(O)c(O)c2)[C@H](O)[C@@H](O)[C@@H]1O [C3G, Cyanidin 3-glucoside] | Neither C3G nor D3Gal or Pet3G inhibited HSV-1 | – | –
OC[C@H]1O[C@@H](Oc2cc3c(O)cc(O)cc3[o+]c2-c2cc(O)c(O)c(O)c2)[C@H](O)[C@@H](O)[C@H]1O [D3Gal, Delphinidin 3-galactoside] | Neither C3G nor D3Gal or Pet3G inhibited HSV-1 | – | –
COc1cc(-c2[o+]c3cc(O)cc(O)c3cc2O[C@@H]2O[C@H](CO)[C@@H](O)[C@H](O)[C@H]2O)cc(O)c1O [Pet3G, Petunidin 3-glucoside] | Neither C3G nor D3Gal or Pet3G inhibited HSV-1 | – | –
Nc1nc2c(ncn2COCCO)c(=O)[nH]1 [Aciclovir, 9-(2-hydroxyethoxymethyl)guanine] | – | two | two
